# Experimental data: a melting point compilation (Tetko et al.; mined from patent text by program, amines drawn as free bases though some values may be those of a salt)
row,Compound,melting point
1,CN1C(=O)CC[C@]2(C)c3ccc(CCc4ccccc4)cc3CC[C@@H]12,109 to 111 °C
2,CS(=O)(=O)Nc1cccc(NC(=O)C(=O)N2CCC(Cc3ccc(F)cc3)CC2)c1,102 to 106 °C
3,CCCN(CCC)C(=O)Cn1c(-c2ccc(OC)cc2)nc2cccnc21,127 to 129 °C
4,Cn1cc(-c2cc3nccnc3[nH]2)cn1,232 to 234 °C
5,CC(C)Oc1ccc(OCc2ccccc2)cc1-c1nc2cccnc2[nH]1,160 to 162 °C
6,CC(=O)OCC1OC(n2cc(C(I)=CI)c(=O)[nH]c2=O)CC1OC(C)=O (centres undefined),76 to 78 °C
7,COC(=O)CC=C(CC(C)C)C(=O)O,40 to 45 °C
8,O=C(CCC(CSc1ccc2ccccc2c1)C(=O)O)OCc1ccccc1 (centres undefined),94 to 95 °C
9,CS(=O)(=O)c1ccc(-c2cnn(CC(F)(F)F)c(=O)c2OC2CCCCC2)cc1,129 to 130 °C
10,CCCn1c(=O)c2[nH]c(/C=C/c3ccccc3F)nc2n(CCC)c1=O,259 °C
11,CCCCOCCOc1ccc(-c2ccc3c(c2)C=C(C(=O)Nc2ccc(OCc4nccn4CCC)cc2)CCN3CC(C)C)cc1,118 to 120 °C
12,COc1ccccc1NC(=O)Nc1nc(N2CCN(c3ccccc3OC(C)C)CC2)nc(N(CCC(=O)O)Cc2ccc(Cl)c(Cl)c2)n1,115 to 118 °C
13,O=Cc1cc(Cl)cc(C=O)n1,163 °C
14,c1ccc2c(c1)-c1ccccc1C2CC1c2ccccc2-c2ccccc21,210 to 212 °C
15,CSc1ccc2c3c(cccc13)C(=O)N2,167 to 172 °C
16,C=CCN1CCCN(c2c(C)cccc2Cl)C1=S,82 to 84 °C
17,CSCC(C)(C)NC(=O)c1c(I)cccc1C(=O)Nc1ccc(-c2nnnn2C2CC2)cc1C,131 to 132 °C
18,Cn1nc(-c2ccc([N+](=O)[O-])o2)c2c(NO)ncnc21,294 °C
19,CC[C@H](C)CNC(=O)[C@@H](C[C@H](O)[C@H](CC1CCCCC1)NC(=O)[C@H](Cc1cscn1)NC(=O)[C@@H](CC(=O)N1CCOCC1)Cc1ccccc1)C(C)(C)O,80 to 82 °C
20,Cc1nc2cc(C)c(OCC(C)(C)CS(N)(=O)=O)nn2n1,217 to 218 °C
21,CS(=O)c1ccc2ncn(C=CC(=O)O)c(=O)c2c1 (centres undefined),275 to 276 °C
22,CCOc1ccc(O)c(F)c1F,73 °C
23,Nc1ccc(Cl)cc1C(=O)c1ccc(Cl)cc1,106 to 107 °C
24,O=S(=O)(Nc1ccc(Oc2cccc3cccnc23)c(Cl)c1)c1cccc(C(F)(F)F)c1,> 245 °C
25,CCOC(=O)c1cccc(-c2ccc3ccccc3c2)c1,101 to 103 °C

row,Compound,melting point
1,C#CCCC(=O)N1c2ccccc2C(=O)Nc2cccnc21,179 to 180 °C
2,CCCc1c(OCCCOc2ccccc2C(=O)NCCCCc2cccnc2)ccc(C(C)=O)c1O,104 to 107 °C
3,Cc1cc(C(=O)N2C(C)CCCC2C)ccc1[N+](=O)[O-] (centres undefined),99.7 to 100 °C
4,CC(=O)c1c(-c2ccc(O)cc2)oc2ccc(O)cc12,243 to 251 °C
5,CCCCCCCCCCOc1ccc2c(=O)c3cccc(C(=O)O)c3oc2c1CCC(=O)O,> 210 °C
6,CC[C@H](C)CNC(=O)[C@@H](C[C@H](O)[C@H](CC1CCCCC1)NC(=O)[C@H](Cc1cscn1)NC(=O)OC(C)(C)C)C(C)(C)O,190 to 193 °C
7,Cc1cc(C)cc(-c2cn(C(C)C)c3ccccc23)c1,60 to 62 °C
8,C=CCn1c(=O)c2c(nc(/C=C/c3ccc(OC(C)=O)c(OC)c3)n2C)n(CC=C)c1=O,207 to 208 °C
9,CC(=O)NC1CCN(c2c(F)cc3c(=O)c(C(=O)O)cn4c3c2CCC4C)CC1 (centres undefined),274 to 277 °C
10,CSc1c(C)[nH]c2c(C)cccc12,32 to 33 °C
11,N#Cc1cn(Cc2c(F)cccc2F)nn1,116 °C
12,COc1ccc2ccc(N3C(=O)c4ccccc4C3CC(=O)CCCO)nc2n1 (centres undefined),152 °C
13,Cc1cc(-c2cc(C(F)(F)F)nc(-c3cccc(-c4ccc(S(N)(=O)=O)s4)c3)n2)ccc1C(F)(F)F,216 °C
14,CC1(C)CCc2ccccc2C1n1cncc1C1SCCS1 (centres undefined),109 °C
15,O=C(NCc1ccc(F)cc1)Nc1ccc(CN2C(=O)[C@H]3CCC[C@H]3N(C(=O)CN3C(=O)c4ccccc4C3=O)c3ccccc32)cc1 (relative stereo),154 to 156 °C
16,CN(C)CC#C[C@H]1CC[C@H](CN(C)c2ncc(Br)cn2)CC1,71 to 72 °C
17,O=C=Nc1ccc(OCc2nc(Cl)ccc2Cl)cc1,61.5 to 62.5 °C
18,CC1COc2c(F)c(F)cc3c2N1C(=O)C3=O (centres undefined),169 to 171 °C
19,O=[N+]([O-])CS(=O)(=O)c1ccc(F)cc1F,74 to 75 °C
20,Cc1ccnc(C(=O)c2[nH]c3cc(Cl)ccc3c2NC(=O)CCN(C)C)c1,170 to 171 °C
21,O=C(Oc1ccccc1Br)c1cc(-c2ccccc2)cn1CCc1ccccc1Br,90 to 92 °C
22,CCCCn1c(=O)c2c(ncn2S(=O)(=O)c2cccc([N+](=O)[O-])c2)n(CCCC)c1=O,178 to 179 °C
23,N#CC1=Nc2ccc(Cl)cc2Oc2ccccc21,185 to 188 °C
24,O=C(c1ccc2[nH]c(=O)n(Cc3ccc(F)cc3)c(=O)c2c1)c1nc(Br)c2ccccn12,325 °C
25,COc1ccc(C(=O)c2cccc(F)c2F)c(O)c1Cl,161 to 162 °C

row,Compound,melting point
1,CSc1ccc(C2=NC[C@@H](OC(=O)Nc3ccccc3)[C@H](c3ccccc3)O2)cc1 (racemic),170 °C
2,Cc1nc2cccc(OCC(C)(C)C(=O)NCC(C)C)c2c(N)c1C(=O)O,176 to 179 °C
3,Nc1nc(Nc2ccccc2)sc1C(=O)c1c(Cl)cccc1Cl,245 to 246 °C
4,C[C@H]1CC[C@H]2C(C)(C)[C@@H](O)CC[C@]23Oc2c(c(O)cc4c2CN(S(=O)(=O)c2ccccc2)C4)C[C@]13C,150 to 153 °C
5,CCOC(=O)CN1C(=O)C2(COc3cc(F)c(F)cc32)c2c(Br)cccc21 (centres undefined),133 to 134 °C
6,O=C1CCC2C=C(c3cccnc3)C(F)=CC2N1 (centres undefined),228 °C
7,CCOC(C#CCN1CCC(NC(=O)c2ccccc2)CC1)OCC,130 °C
8,N#CCCn1cccc1C1=CC(=O)c2ncccc2C1=O,166 to 167 °C
9,CCc1scc(C(=O)O)c1N,132 to 133 °C
10,Cc1ccc(S(=O)(=O)C(CC#Cc2ccc(Cl)cc2)C(=O)O)cc1 (centres undefined),154 to 157 °C
11,COc1cc(/C=C/c2ccc(F)cc2)cc(OC)c1,46 to 48 °C
12,COc1cc2cc(C)c(CO)c(-c3ccnc(Br)c3)c2cc1OC,106 to 108 °C
13,O=C(CCC(C(=O)O)N1C(=O)c2cccc(NCc3ccco3)c2C1=O)Nc1ccccc1 (centres undefined),146 to 148 °C
14,CN1CCCCCC1=NC(=O)Nc1cccc(Cl)c1,115 to 118 °C
15,CCC1(C)CC(=O)C2(C)CCC3c4ccc(OC)cc4CCC3C12 (centres undefined),104 to 107 °C
16,O[C@@H]1CN=C(c2cccs2)O[C@H]1c1ccccc1 (racemic),158 °C
17,CN1N=C(c2ccc(F)cc2)c2ccc(F)cc2CS1(=O)=O,205 to 206 °C
18,CCCCCC#CCC(CC#CCCCCC)(C(=O)O)S(=O)(=O)c1ccc(OC)cc1,61 °C
19,CCCCCCSC(=S)N1Cc2[nH]c3ccccc3c2CC1CO (centres undefined),102 to 106 °C
20,CCOP(=O)(OCC)C(Nc1nocc1C)P(=O)(OCC)OCC,68 to 69 °C
21,CCCCOc1c(CNC(=O)OC(C)(C)C)n(CC(C)C)c(=O)c2ccc(C(N)=S)cc12,189 to 190 °C
22,COc1cc(N2C(=O)c3ccccc3C2=O)ccc1-c1ccc(Cl)s1,194 to 195 °C
23,COc1cc2ncc(C#N)c(Nc3cccc(O)c3C)c2cc1OC,255 to 257 °C
24,Cn1cncc1-c1c(C(CC#N)c2ccc(Cl)cc2)ccc2c1c(-c1cccc(Cl)c1)cc(=O)n2C (centres undefined),151 °C
25,Cc1ccc(C(=O)c2[nH]c3ccc(Cl)cc3c2CC(=O)O)nc1,247 to 248 °C

row,Compound,melting point
1,CC(=O)OC1C(N2CCCCC2)CC2C3CCC4CCC(=O)CC4(C)C3CCC21C (centres undefined),165 to 167 °C
2,COCCOc1cc2nccc(Oc3cccc(O)c3)c2cc1C#N,159 to 163 °C
3,CC(CCCC(=O)O)(c1ccc(OCc2ccc3ccccc3n2)cc1)c1ccc(OCc2ccc3ccccc3n2)cc1,87 to 89 °C
4,COc1cccc(-c2nn(Cc3ccccc3)c(N)c2C#N)c1,147 to 149 °C
5,CCOC(=O)c1snnc1SC,64.5 to 65.5 °C
6,COC1=C(c2ccccc2)C(CCC(=O)O)OC1=O (centres undefined),126 to 127 °C
7,CSc1ccc(-c2ccc(C(=O)Nc3cc4ncc(CN5CCCC5)cc4cc3C)cc2)cc1,198 °C
8,Nc1nc(-c2cc(Cl)ccc2Cl)nc(N2CCSCC2)n1,239 to 241 °C
9,O=[N+]([O-])c1cccnc1NCc1ccc(F)cc1,76 °C
10,CCN(CC)CCCCNc1ncc2c(n1)N(C1CCCC1)C(=O)N(c1c(F)c(OC)cc(OC)c1F)C2,132 to 133 °C
11,CN(C)c1ccc(Nc2cccc3c2C(=O)N(C2CCC(=O)NC2=O)C3=O)cc1 (centres undefined),> 260 °C
12,O=S(=O)(c1ccc(OCCO)cc1)C(Br)(Br)Br,157 to 162 °C
13,O=c1oc2c(-c3ccccc3)cccc2c(OCCN2CCOCC2)c1-c1ccccc1,106 to 108 °C
14,CC1CN(c2ccccc2)N=C1N (centres undefined),83 to 84 °C
15,CCCCCCCCCCCCCCCCCCc1c(C(=O)OCC)[nH]c(C)c1C,78 to 80 °C
16,O=C1c2cc(O)cc(O)c2C(=O)C1c1ccc(O)cc1 (centres undefined),180 °C
17,COc1cccc2c1OC(C)C2=O (centres undefined),60 to 61 °C
18,CC(C)Oc1cc2c(cc1O)C(=O)CC(C)(C)O2,138 to 139 °C
19,COCC(=O)N1CCc2nc3ccccc3c(C)c2CC1,116 °C
20,CCCc1nnc(N2N=C(c3ccc([N+](=O)[O-])c(C)c3)c3cc4c(cc3C[C@H]2C)OCO4)s1,143 to 145 °C
21,CC(C)(C)c1cc2c(c(C(C)(C)C)c1)OC(=O)C2c1ccc(OCC(=O)O)cc1 (centres undefined),158 to 162 °C
22,CCCCCCc1ccc(-c2ccc(C(=O)Oc3ccc(C(=O)O)c(Cl)c3)cc2)cc1,164 to 166 °C
23,O=C(Nc1ccc(-c2ccccc2)s1)c1ccccc1,202 to 203 °C
24,CN(C)C=CC(=O)c1cccc(NC=O)c1,165 to 167 °C
